The source of these data is patent publication US20210115104A1, “AMYLIN ANALOGUES” (Zealand Pharma A/S, priority 2015, published 2021).

Data set [1] concerns the target T1, human amylin receptor 3 (hAMYR3), hCTR2 co-expressed with hRAMP3 (Homo sapiens, UniProt O60896+P30988).
T1 construct: expressed in transfected cells
T1 sequence (P30988 25-474): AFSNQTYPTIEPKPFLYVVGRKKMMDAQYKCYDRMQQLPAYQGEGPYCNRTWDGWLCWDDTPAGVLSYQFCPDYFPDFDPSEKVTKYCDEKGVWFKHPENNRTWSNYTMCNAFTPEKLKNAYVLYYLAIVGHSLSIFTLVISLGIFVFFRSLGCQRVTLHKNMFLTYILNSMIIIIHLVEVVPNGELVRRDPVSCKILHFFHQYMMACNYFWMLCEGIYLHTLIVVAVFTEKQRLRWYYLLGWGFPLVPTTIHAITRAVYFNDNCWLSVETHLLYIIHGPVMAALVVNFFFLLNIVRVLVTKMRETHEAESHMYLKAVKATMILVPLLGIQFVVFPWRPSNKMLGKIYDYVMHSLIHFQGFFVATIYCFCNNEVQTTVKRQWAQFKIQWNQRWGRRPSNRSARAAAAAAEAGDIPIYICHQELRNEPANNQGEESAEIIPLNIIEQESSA
T1 sequence (O60896 24-148 partner): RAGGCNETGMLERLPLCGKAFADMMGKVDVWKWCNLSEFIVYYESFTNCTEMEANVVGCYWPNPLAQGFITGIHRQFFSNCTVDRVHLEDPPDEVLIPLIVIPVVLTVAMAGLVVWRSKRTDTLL
Briefly: hAMYR3 cAMP assay (AlphaScreen) in COS7 cells. It is filed as cell-based. Conditions: cAMP induction, COS7 cells expressing hAMYR3; Table 1; read-out: hAMYR3 EC50. A digest of the protocol:
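Stable COS7 clone co-expressing hCTR2 and hRAMP3 was exposed to increasing peptide concentrations in Tyrode buffer (pH 7.4) with 100 µM IBMX and 0.1% casein for 15 min at 37 °C. Lysate cAMP was measured by AlphaScreen; EC50 came from 4-parameter logistic fitting.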
(In general: Cyclic AMP is a second messenger, typically raised through Gs and lowered through Gi signalling.)

For data set [2], the target named is T2, human calcitonin receptor (hCTR2) (Homo sapiens, UniProt P30988).
T2 construct: expressed in transfected cells
T2 sequence (P30988 25-474): T1 sequence (P30988 25-474)
Briefly: hCTR2 cAMP assay (AlphaScreen) in COS7 cells. The format is cell-based. Conditions: cAMP induction, COS7 cells expressing hCTR2; Table 1; read-out: hCTR2 EC50. A digest of the protocol: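 Stable hCTR2 clone in RAMP-naïve COS7 cells stimulated 15 min at 37 °C with increasing peptide concentrations in Tyrode buffer pH 7.4 containing IBMX and 0.1% casein. cAMP in lysates measured by AlphaScreen; EC50 from 4-parameter logistic fit.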

Data set [3] can be described thus: Assessment of physical stability (Thioflavin T fibrillation). It is filed as physicochemical. More on the design: key: FND = fibrillation not detected; FD = fibrillation detected. To be noted: 1 mg/ml, 40° C., ThT; for Fibrillation pH 4.0 (Ac): 50 mM acetate buffer pH 4.0, 96 hours; for Fibrillation pH 7.0 (His): 50 mM histidine buffer pH 7.0, 96 hours; for Fibrillation pH 7.0 (Phos.): 50 mM phosphate buffer pH 7.0, 96 hours. A digest of the protocol:
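1 mg/ml peptide with 40 μM ThT in 50 mM phosphate pH 7.0, 50 mM histidine pH 7.0 or 50 mM acetate pH 4.0, in triplicate. Fluorescence read every 10 min after 300 s agitation over 96 h at 40 °C. Lag-time (h) is the intersection of linear fits to stable and growth phases.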

*1 amine or outer side, *2 acyl side, *3 side chain or, on linkers, in order; H or OH if unused. Where a SMILES comes first, the peptide text is derived from it. Bridges are numbered along the chain shown (N, C = ends). [ ]: non-standard residue; d: D form. The star is where a group is joined. C20 diacid = O=C(O)CCCCCCCCCCCCCCCCCCC(=O)*; γGlu = O=C(O)[C@H](CCC(=O)[*:2])N[*:1]; Hyp = O=C(O)[C@@H]1C[C@@H](O)CN1; NMeI = CC[C@H](C)[C@H](NC)C(=O)O; Aad = N[C@@H](CCCC(=O)O)C(=O)O; Sar = CNCC(=O)O

The EC50 is the concentration giving half of the maximal effect. As for `CC[C@H](C)[C@@H](C(=O)N[C@@H](CC(C)C)C(=O)N[C@@H](CO)C(=O)N[C@@H](CO)C(=O)N[C@H](C(=O)N[C@@H](CCC(=O)O)C(=O)N[C@H](C(=O)NCC(=O)N[C@@H](CO)C(=O)N[C@@H](CO)C(=O)N[C@H](C(=O)N1CCC[C@H]1C(N)=O)[C@@H](C)O)C(C)C)[C@@H](C)O)N(C)C(=O)[C@H](C)NC(=O)CN(C)C(=O)[C@H](Cc1ccccc1)NC(=O)[C@H](CO)NC(=O)[C@H](CO)NC(=O)[C@H](CCCNC(=N)N)NC(=O)[C@H](CCC(=O)O)NC(=O)[C@H](CC(C)C)NC(=O)[C@H](Cc1ccccc1)NC(=O)[C@H](Cc1c[nH]cn1)NC(=O)[C@H](C)NC(=O)[C@H](CC(C)C)NC(=O)[C@H](CCCNC(=N)N)NC(=O)[C@H](CCC(=O)O)NC(=O)[C@@H](NC(=O)[C@H](C)NC(=O)[C@@H]1CSSC[C@H](NC(=O)[C@H](CCCNC(=N)N)NC(=O)CC[C@H](NC(=O)CCCCCCCCCCCCCCCCCCC(=O)O)C(=O)O)C(=O)NCC(=O)N[C@@H]([C@@H](C)O)C(=O)N[C@@H](C)C(=O)N[C@@H]([C@@H](C)O)C(=O)N1)[C@@H](C)O` [Compound 36, [19CD]-isoGlu-R-C( )-GTAT-C( )-ATERLAHFLERSSF-Gly(Me)-A-Ile(Me)-LSSTEVGSSTP-NH2] ({C20 diacid-γGlu}-RCGTATCATERLAHFLERSSF[Sar]A[NMeI]LSSTEVGSSTP-NH2; disulfide 2-7), the 50% effective concentration (EC50) in data set [1] came out at 0.36 nM. The EC50 in data set [2] was 0.21 nM. For the same compound, in data set [3], the “Fibrillation pH 4.0 (Ac)” value is “FND”, the “Fibrillation pH 7.0 (His)” value is given as “FND” and the “Fibrillation pH 7.0 (Phos.)” value was “FD”.

Regarding `CC[C@H](C)[C@@H](C(=O)N[C@@H](CC(C)C)C(=O)N[C@@H](CO)C(=O)N[C@@H](CO)C(=O)N[C@H](C(=O)N[C@@H](CCC(=O)O)C(=O)N[C@H](C(=O)NCC(=O)N[C@@H](CO)C(=O)N[C@@H](CC(N)=O)C(=O)N[C@H](C(=O)N1C[C@H](O)C[C@H]1C(N)=O)[C@@H](C)O)C(C)C)[C@@H](C)O)N(C)C(=O)[C@H](C)NC(=O)CN(C)C(=O)[C@H](Cc1ccccc1)NC(=O)[C@H](CO)NC(=O)[C@H](CO)NC(=O)[C@H](CCCNC(=N)N)NC(=O)[C@H](CCC(N)=O)NC(=O)[C@H](CC(C)C)NC(=O)[C@H](Cc1ccccc1)NC(=O)[C@H](CC(=O)O)NC(=O)[C@H](C)NC(=O)[C@H](CC(C)C)NC(=O)[C@H](CCCNC(=N)N)NC(=O)[C@H](CCC(N)=O)NC(=O)[C@@H](NC(=O)[C@H](C)NC(=O)[C@@H]1CSSC[C@H](NC(=O)[C@H](CCCNC(=N)N)NC(=O)CC[C@H](NC(=O)CCCCCCCCCCCCCCCCCCC(=O)O)C(=O)O)C(=O)N[C@@H](CC(N)=O)C(=O)N[C@@H]([C@@H](C)O)C(=O)N[C@@H](C)C(=O)N[C@@H]([C@@H](C)O)C(=O)N1)[C@@H](C)O` [Compound 49, [19CD]-isoGlu-R-C( )-NTAT-C( )-ATQRLADFLQRSSF-Gly(Me)-A-Ile(Me)-LSSTEVGSNT-Hyp-NH2] ({C20 diacid-γGlu}-RCNTATCATQRLADFLQRSSF[Sar]A[NMeI]LSSTEVGSNT[Hyp]-NH2; disulfide 2-7), the EC50 in data set [1] amounted to 0.15 nM. Moreover, the concentration for a half-maximal effect (EC50) in data set [2] came out at 0.06 nM. For the same compound, in data set [3], the “Fibrillation pH 4.0 (Ac)” value is reported as “FD”, the “Fibrillation pH 7.0 (His)” value is recorded as “FND” and the “Fibrillation pH 7.0 (Phos.)” value is recorded as “FND”.

Consider `CC[C@H](C)[C@@H](C(=O)N[C@@H](CC(C)C)C(=O)N[C@@H](CO)C(=O)N[C@@H](CO)C(=O)N[C@H](C(=O)N[C@@H](CCC(=O)O)C(=O)N[C@H](C(=O)NCC(=O)N[C@@H](CO)C(=O)N[C@@H](CC(N)=O)C(=O)N[C@H](C(=O)N1C[C@H](O)C[C@H]1C(N)=O)[C@@H](C)O)C(C)C)[C@@H](C)O)N(C)C(=O)[C@H](C)NC(=O)CN(C)C(=O)[C@H](Cc1ccccc1)NC(=O)[C@H](CO)NC(=O)[C@H](CO)NC(=O)[C@H](CCCNC(=N)N)NC(=O)[C@H](CCC(N)=O)NC(=O)[C@H](CC(C)C)NC(=O)[C@H](Cc1ccccc1)NC(=O)[C@H](CCCC(=O)O)NC(=O)[C@H](C)NC(=O)[C@H](CC(C)C)NC(=O)[C@H](CCCNC(=N)N)NC(=O)[C@H](CCC(=O)O)NC(=O)[C@@H](NC(=O)[C@H](C)NC(=O)[C@@H]1CSSC[C@H](NC(=O)[C@H](CCCNC(=N)N)NC(=O)CC[C@H](NC(=O)CCCCCCCCCCCCCCCCCCC(=O)O)C(=O)O)C(=O)NCC(=O)N[C@@H]([C@@H](C)O)C(=O)N[C@@H](C)C(=O)N[C@@H]([C@@H](C)O)C(=O)N1)[C@@H](C)O` [Compound 55, [19CD]-isoGlu-R-C( )-GTAT-C( )-ATERLA-Aad-FLQRSSF-Gly(Me)-A-Ile(Me)-LSSTEVGSNT-Hyp-NH2] ({C20 diacid-γGlu}-RCGTATCATERLA[Aad]FLQRSSF[Sar]A[NMeI]LSSTEVGSNT[Hyp]-NH2; disulfide 2-7), for which, in data set [1], the 50% effective concentration (EC50) turned out to be 0.08 nM. Also, in data set [2], the EC50 worked out at 0.11 nM. For the same compound, in data set [3], the “Fibrillation pH 4.0 (Ac)” value is given as “FND”, the “Fibrillation pH 7.0 (His)” value is recorded as “FND” and the “Fibrillation pH 7.0 (Phos.)” value is listed as “FND”.

As for `CC[C@H](C)[C@@H](C(=O)N[C@@H](CC(C)C)C(=O)N[C@@H](CO)C(=O)N[C@@H](CO)C(=O)N[C@H](C(=O)N[C@@H](CCC(=O)O)C(=O)N[C@H](C(=O)NCC(=O)N[C@@H](CO)C(=O)N[C@@H](CC(N)=O)C(=O)N[C@H](C(=O)N1C[C@H](O)C[C@H]1C(N)=O)[C@@H](C)O)C(C)C)[C@@H](C)O)N(C)C(=O)[C@H](C)NC(=O)CN(C)C(=O)[C@H](Cc1ccccc1)NC(=O)[C@H](CO)NC(=O)[C@H](CO)NC(=O)[C@H](CCCNC(=N)N)NC(=O)[C@H](CCC(N)=O)NC(=O)[C@H](CC(C)C)NC(=O)[C@H](Cc1ccccc1)NC(=O)[C@H](Cc1c[nH]cn1)NC(=O)[C@H](C)NC(=O)[C@H](CC(C)C)NC(=O)[C@H](CCCNC(=N)N)NC(=O)[C@H](CCC(=O)O)NC(=O)[C@@H](NC(=O)[C@H](C)NC(=O)[C@@H]1CSSC[C@H](NC(=O)[C@H](CCCNC(=N)N)NC(=O)CC[C@H](NC(=O)CCCCCCCCCCCCCCCCCCC(=O)O)C(=O)O)C(=O)N[C@@H](CCC(N)=O)C(=O)N[C@@H]([C@@H](C)O)C(=O)N[C@@H](C)C(=O)N[C@@H]([C@@H](C)O)C(=O)N1)[C@@H](C)O` [Compound 57, [19CD]-isoGlu-R-C( )-QTAT-C( )-ATERLAHFLQRSSF-Gly(Me)-A-Ile(Me)-LSSTEVGSNT-Hyp-NH2] ({C20 diacid-γGlu}-RCQTATCATERLAHFLQRSSF[Sar]A[NMeI]LSSTEVGSNT[Hyp]-NH2; disulfide 2-7), the EC50 in data set [1] is 0.11 nM. In data set [2], the EC50 is 0.08 nM. Further, in data set [3], the “Fibrillation pH 4.0 (Ac)” value was “FND”, the “Fibrillation pH 7.0 (His)” value is “FND” and the “Fibrillation pH 7.0 (Phos.)” value is given as “FND”.

Turning to `CC[C@H](C)[C@@H](C(=O)N[C@@H](CC(C)C)C(=O)N[C@@H](CO)C(=O)N[C@@H](CO)C(=O)N[C@H](C(=O)N[C@@H](CCC(=O)O)C(=O)N[C@H](C(=O)NCC(=O)N[C@@H](CO)C(=O)NCC(=O)N[C@H](C(=O)N1C[C@H](O)C[C@H]1C(N)=O)[C@@H](C)O)C(C)C)[C@@H](C)O)N(C)C(=O)[C@H](C)NC(=O)CN(C)C(=O)[C@H](Cc1ccccc1)NC(=O)[C@H](CO)NC(=O)[C@H](CO)NC(=O)[C@H](CCCNC(=N)N)NC(=O)[C@H](CCC(N)=O)NC(=O)[C@H](CC(C)C)NC(=O)[C@H](Cc1ccccc1)NC(=O)[C@H](Cc1c[nH]cn1)NC(=O)[C@H](C)NC(=O)[C@H](CC(C)C)NC(=O)[C@H](CCCNC(=N)N)NC(=O)[C@H](CCC(N)=O)NC(=O)[C@@H](NC(=O)[C@H](C)NC(=O)[C@@H]1CSSC[C@H](NC(=O)[C@H](CCCNC(=N)N)NC(=O)CC[C@H](NC(=O)CCCCCCCCCCCCCCCCCCC(=O)O)C(=O)O)C(=O)N[C@@H](CC(N)=O)C(=O)N[C@@H]([C@@H](C)O)C(=O)N[C@@H](C)C(=O)N[C@@H]([C@@H](C)O)C(=O)N1)[C@@H](C)O` [Compound 71, [19CD]-isoGlu-R-C( )-NTAT-C( )-ATQRLAHFLQRSSF-Gly(Me)-A-Ile(Me)-LSSTEVGSGT-Hyp-NH2] ({C20 diacid-γGlu}-RCNTATCATQRLAHFLQRSSF[Sar]A[NMeI]LSSTEVGSGT[Hyp]-NH2; disulfide 2-7), the EC50 in data set [1] came to 0.18 nM. In data set [2], the 50% effective concentration (EC50) came to 0.11 nM. Moreover, in data set [3], the “Fibrillation pH 4.0 (Ac)” value is “FND”, the “Fibrillation pH 7.0 (His)” value is “FD” and the “Fibrillation pH 7.0 (Phos.)” value is on record as “FD”.
